Laboratory results reported in US9992989B2, “Dual action lethal containers, systems, methods and compositions for killing adult mosquitos and larvae” (University of Florida Research Foundation, Inc., priority 2012, dated 2018).

How the values were obtained:
mosquito larvae = test: Dual-action ovitrap test, larval survival (Protocol D); format: in vivo; details: for Mosquito larval survival / mortality versus hours of exposure: larvae in water of ovitrap treated with coating (FIGS. 9-11)
Description: The following protocols A, B, C and D list the flowchart methodologies for experiments that were conducted for evaluating the different coatings used. • A. Flowchart of methodology in the evaluation of adulticide coating includes the steps of: • i. Obtain preferred coating basis; • ii. Add adulticide (pyrethroids) and, if desired, an additive (CARBONXIDE™) to formulate different formulations of insecticides; • iii. Add coating on wood panels; • iv. Age wood panels in simulated environmental conditions; • v. Prepare housing for adult mosquitoes • a Place a 4-oz plastic cup upside down on coated wood panels; • vi. Place adult mosquitoes in the housing cup to expose them to insecticidal coating; • vii. Measure mosquito mortality in 1-hour, 2-hour, and 24-hour after exposure; • viii. Collect data and perform statistical analysis to determine effectiveness of adulticide coating. • B. Flowchart of methodology in the evaluation of larvicide coating can include: • i. Obtain preferred coating basis; • ii. Add larvicide (insect growth regulators) and, if desired, an additive (CARBONXIDE™); • iii. Coat filter paper and let air dry for 1-3 days; • iv. Prepare housing for larval mosquitoes; • a. Place coated filter paper in 4-oz glass jars; • b. Fill jars with unchlorinated or distilled water; • v. Place larval mosquitoes on the jars; • vi. Measure mosquito larva mortality in 12-hour intervals until all are dead or emerged as adults; • vii. Collect data and perform statistical analysis to determine effectiveness of adulticide coating. • C. Flowchart of methodology in evaluation of adulticide coating as applied in lethal ovitrap can include: • i. Obtain preferred coating basis; • ii. Add adulticide (pyrethroids) and, if desired an additive (CARBONXIDE™); • iii. Coat filter paper and let air dry for 1-3 days; • iv. Prepare oviposition cup; • a. Place coated filter paper in a 4-oz plastic cup; • b. Fill cup halfway with unchlorinated or distilled water; • v. Prepare housing for gravid (“pregnant”) females; • a. Cut a 1-inch hole on the side of a 3-gallon bucket; • b. Cover hole with ½ in foam; • vi. […]

Aedes albopictus = test: Adult mosquito mortality on aged insecticidal coatings on wood panels (Protocol A); format: in vivo; details: 24 h exposure, independent of aging for approximately 2 years (FIG. 8)
Description: (§1) The following protocols A, B, C and D list the flowchart methodologies for experiments that were conducted for evaluating the different coatings used. • A. Flowchart of methodology in the evaluation of adulticide coating includes the steps of: • i. Obtain preferred coating basis; • ii. Add adulticide (pyrethroids) and, if desired, an additive (CARBONXIDE™) to formulate different formulations of insecticides; • iii. Add coating on wood panels; • iv. Age wood panels in simulated environmental conditions; • v. Prepare housing for adult mosquitoes • a Place a 4-oz plastic cup upside down on coated wood panels; • vi. Place adult mosquitoes in the housing cup to expose them to insecticidal coating; • vii. Measure mosquito mortality in 1-hour, 2-hour, and 24-hour after exposure; • viii. Collect data and perform statistical analysis to determine effectiveness of adulticide coating. • B. Flowchart of methodology in the evaluation of larvicide coating can include: • i. Obtain preferred coating basis; • ii. Add larvicide (insect growth regulators) and, if desired, an additive (CARBONXIDE™); • iii. Coat filter paper and let air dry for 1-3 days; • iv. Prepare housing for larval mosquitoes; • a. Place coated filter paper in 4-oz glass jars; • b. Fill jars with unchlorinated or distilled water; • v. Place larval mosquitoes on the jars; • vi. […]

Aedes aegypti = test: as above; format: in vivo; details: 24 h exposure, independent of aging for approximately 2 years (FIG. 7)
Description: as §1

[1] = test system: gravid females (adult mosquitoes); test: Dual-action ovitrap test, adult survival (Protocol D); format: in vivo, mosquito; details: gravid females exposed to ovitrap treated with coating (FIGS. 9-11)
Description: as §1

`CC1(C)C(C=C(Cl)Cl)C1C(=O)OCc1cccc(Oc2ccccc2)c1` (stereo not shown) [permethrin] was tested. Which “Mosquito larval survival / mortality versus hours of exposure” value (mosquito larvae) did it give?
Its value is “killed rapidly”.

And the “Percent of Adult Mosquito Mortality” value (Aedes albopictus)?
The value was 100%.

And the “Percent of Adult Mosquito Mortality” value (Aedes aegypti)?
The value was 100%.

And the “Adult survival / mortality versus hours of exposure” value [1]?
Its value is “Adult mortality does not occur until after the females have started laying eggs”.

Which results are given for `CC(COc1ccc(Oc2ccccc2)cc1)Oc1ccccn1` (stereo not shown) [pyriproxyfen]?
Pupal development / adult emergence from larvae (mosquito larvae; larvae in ovitrap treated with coating (FIG. 11)): adults never emerge; Mosquito larval survival / mortality versus hours of exposure (mosquito larvae): killed rapidly when they start molting into the pupal stage; Adult survival / mortality versus hours of exposure [1]: only normal mortality
